What was measured:
[1] = test system: OVA-specific IgG1 and IgG2a; assay: OVA-specific IgG1 and IgG2a plasma antibody titres (ELISA) after immunization with OVA/alum with or without alkaloid; type: in vivo, mice (BALB/c)
Method: Alhydrogel (alum; purchased from Superfos BioSector a/s, Vedbaek, Denmark) was mixed with a predetermined quantity of highly purified ovalbumin (OVA; Worthington Biochemical Corporation, Lakewood, N.J.) with or without 3,7-diepi-casuarine.
(§1) All mice (BALB/c) were immunized subcutaneously into the foodpad with 100 μg OVA in 50 μl phosphate-buffered saline (PBS) mixed with alum and either PBS (control) or 3,7-diepi-casuarine (50 μg in PBS). Boosting inoculations were performed in the same fashion 2 weeks later, into the contralateral footpad.
Blood samples (tail bleeds) were taken 3 weeks after the primary inoculation. Enzyme-linked immunosorbent assays (ELISA) were performed as described in Brewer et al. (1999) J Immunol 163:6448-54 to detect OVA-specific IgG1 and IgG2a in plasma. Results were expressed as end-point dilutions where the end-point is determined as the final plasma dilution, which yields a higher absorbance than a negative control plasma sample, included in the assay.

[2] = test system: Murine interferon-γ (IFN-γ); assay: IFN-γ production by spleen cells of inoculated mice re-stimulated with OVA in vitro (ELISA); type: cell-based, mice (BALB/c); conditions: cells from mice inoculated with alum/OVA plus 50 μg compound vs alum/OVA alone (control); FIG. 2
Method: as §1
The mouse spleen was removed aseptically and placed in a sterile petri dish containing 5 mls of complete medium (RPMI, 1% L-Glutamine, 1% Penicillin/Streptomycin and 10% foetal calf serum). Cells suspensions were prepared by using the end of a syringe and grinding the spleen through a wire mesh. The cell suspension was then centrifuged at 1000 rpm for 5 minutes. To remove the erythrocytes, the cell pellet was resuspended in Boyle's solution (Tris 0.17M & Ammonium Chloride 0.16M) and centrifuged again for 5 minutes. The pellet was then washed in medium a further two times, then resuspended in 3 ml medium. A cell count was then carried out. Stimulation assays were performed in triplicate in U-bottomed 96-well plates (Corning Costar, N.Y.) with OVA (at 5 μg/ml, 100 μg/ml and 500 μg/ml).
Murine interferon-γ (IFN-γ) was assayed by ELISA using paired antibodies according to the manufacturer's instructions.

[3] = test system: influenza vaccine-specific IgG, IgG1 and IgG2a; parameters: species or system Balb/c mice; conditions: mouse, in vivo
[4] = test system: α-glucosidase; conditions: cited from earlier work
[5] = test system: glycosidase; conditions: cited from earlier work
[6] = test system: α-mannosidase; conditions: cited from earlier work
[7] = test system: alum-induced Th1/Th2 response; assay: Effect of exogenous rIL-12 on alum-induced Th1/Th2 responses (Example 1 repeated, lymph node cultures); type: in vivo, mice (BALB/c); conditions: 1 μg rIL-12 in place of 3,7-diepi-casuarine; IFN-γ on lymph node cultures
Method: The experiment described in Example 1 (above) was repeated, but with the 3,7-diepi-casuarine replaced with 1 μg of rIL-12 (R&D Systems, Oxford, UK). Proliferative response assays of IFN-γ were performed on lymph node cultures rather than spleen cells (as described in Pollock et al. (2003) Immunology 108:137-143).

OC[C@H]1[C@@H](O)[C@H](O)[C@H]2[C@@H](O)[C@@H](O)CN21 [3,7-diepi-casuarine, (1R,2R,3S,6S,7R,7aR)-3-(hydroxymethyl)-1,2,6,7-tetrahydroxypyrrolizidine]
shift of the alum-induced Th2 response towards Th1 ([1]; 50 μg in admixture with alum/OVA, vs alum/OVA alone): pronounced shift towards a Th1 response
antigen-specific (OVA) IgG2a in plasma ([1]; BALB/c mice, s.c. footpad, 100 μg OVA with alum, with or without 50 μg 3,7-diepi-casuarine, bleed at 3 weeks, FIG. 1b): significant increase
IFN-γ produced by spleen cells re-stimulated with antigen in vitro [2]: significantly greater amount
adjuvant activity [3]: exhibits adjuvant activity
dose response of the antibody responses [3]: No dose response
influenza vaccine-specific IgG1 response vs control group vaccinated with influenza vaccine alone [3]: statistically significant increased
influenza vaccine-specific IgG2a response vs control group A [3]: No differences
influenza vaccine-specific IgGtotal response vs control group A [3]: statistically significant increased
skewing of the Th1/Th2 response from Th2 towards Th1 [3]: No skewing

O[C@H]1[C@H](O)[C@@H](O)CN2CC[C@H](O)[C@H]12 [castanospermine]
inhibition of α-glucosidase [4]: potent

O[C@H]1[C@H]2[C@H](O)CCN2C[C@H]1O [compound 7, (1S, 2R, 7R, 7aR)-1,2,7-trihydroxy]
glycosidase inhibitory activity relative to swainsonine [5]: much weaker inhibitory activity

O[C@H]1[C@H]2[C@@H](O)CCN2C[C@H]1O [compound 8]
glycosidase inhibitory activity relative to swainsonine [5]: much weaker inhibitory activity

O[C@H]1[C@H]2[C@H](O)CCCN2C[C@H]1O [swainsonine]
inhibition of α-mannosidase [6]: potent and specific inhibitor

B1: rIL-12: rIL-12 (R&D Systems, Oxford, UK), recombinant interleukin-12 (protein, UniProt P29459 23-219; P29460 23-328, looked up)
Interleukin-12 subunit alpha: RNLPVATPDPGMFPCLHHSQNLLRAVSNMLQKARQTLEFYPCTSEEIDHEDITKDKTSTVEACLPLELTKNESCLNSRETSFITNGSCLASRKTSFMMALCLSSIYEDLKMYQVEFKTMNAKLLMDPKRQIFLDQNMLAVIDELMQALNFNSETVPQKSSLEEPDFYKTKIKLCILLHAFRIRAVTIDRVMSYLNAS
Interleukin-12 subunit beta: IWELKKDVYVVELDWYPDAPGEMVVLTCDTPEEDGITWTLDQSSEVLGSGKTLTIQVKEFGDAGQYTCHKGGEVLSHSLLLLHKKEDGIWSTDILKDQKEPKNKTFLRCEAKNYSGRFTCWWLTTISTDLTFSVKSSRGSSDPQGVTCGAATLSAERVRGDNKEYEYSVECQEDSACPAAEESLPIEVMVDAVHKLKYENYTSSFFIRDIIKPDPPKNLQLKPLKNSRQVEVSWEYPDTWSTPHSYFSLTFCVQVQGKSKREKKDRVFTDKTSATVICRKNASISVRAQDRYYSSSWSEWASVPCS
effect on the alum-induced Th1/Th2 response [7]: comparable effect to 3,7-diepi-casuarine
